The results in this text go back to ChEMBL document CHEMBL5113517, “Structure-Based Design, Optimization, and Evaluation of Potent Stabilized Peptide Inhibitors Disrupting MTDH and SND1 Interaction” (J Med Chem, 2022).

By Kd is commonly meant a measure of binding affinity in units of concentration.

Numbered stars: 1 amine (or outer) side, 2 acyl side, 3 side chain; on linkers, the order of the positions; unused ones are H or OH. Bridge positions count the residues as written; N and C are the ends. Square brackets hold non-standard residues; d marks the D form. Peptide text beside a SMILES is read from it. I, II: the chains in the order shown. ξ: configuration not given here. X1 = N[C@@H](CC(=O)[*:1])C(=O)[*:2]; Dap = NC[C@H](N)C(=O)O; ξD = NC(CC(=O)O)C(=O)O

One series in a line: Binding affinity to MTDH /His-SND1 (unknown origin) expressed in Escherichia coli BL21(DE3) assessed as dissociation constant by fluorescence polarization assay.
Settings: not given; call rule not given here
Details: species or system Homo sapiens. (In general: Polarisation of emitted light reports the rotation of a fluorescent probe.)
With `CC[C@H](C)[C@H](NC(=O)[C@H](CC(N)=O)NC(=O)[C@H](Cc1c[nH]c2ccccc12)NC(=O)[C@H](CC(=O)O)NC(=O)[C@@H]1CNC(=O)[C@@H](N)CC(=O)N[C@@H](C)C(=O)N[C@@H](C)C(=O)N1)C(=O)N[C@@H](Cc1ccc(O)cc1)C(=O)N[C@@H](C)C(=O)N[C@@H](Cc1ccc(O)cc1)C(=O)N[C@@H](CCC(=O)O)C(=O)N[C@@H](Cc1c[nH]c2ccccc12)C(=O)NCC(=O)N[C@@H](CC(N)=O)C(=O)N[C@@H](Cc1c[nH]cn1)C(N)=O` (AA[Dap]DWNIYAYEWGNH-NH2; linker N-3 via X1), the Kd was 671 nM.
On the same count and under the same terms, the value for `C[C@H](NC(=O)[C@@H]1CCCN1C(=O)[C@@H]1CNC(=O)[C@@H](N)CC(=O)N[C@@H](Cc2c[nH]c3ccccc23)C(=O)N[C@@H](CC(N)=O)C(=O)N1)C(=O)N[C@@H](Cc1ccc(O)cc1)C(=O)N[C@@H](CCC(=O)O)C(=O)N[C@@H](Cc1c[nH]c2ccccc12)C(=O)NCC(=O)N[C@@H](CC(N)=O)C(N)=O` (WN[Dap]PAYEWGN-NH2; linker N-3 via X1) was 585 nM; that for `CC(C)[C@H](NC(=O)[C@H](Cc1c[nH]c2ccccc12)NC(=O)[C@H](CC(N)=O)NC(=O)CNC(=O)[C@H](Cc1c[nH]c2ccccc12)NC(=O)[C@H](CCC(=O)O)NC(=O)[C@H](CCC(=O)O)NC(=O)[C@H](C)NC(=O)[C@@H]1CCCN1C(=O)[C@H](C)NC(=O)[C@H](CC(N)=O)NC(=O)[C@H](Cc1c[nH]c2ccccc12)NC(=O)[C@H](CC(=O)O)NC(=O)[C@H](CO)NC(=O)[C@H](CC(N)=O)NC(=O)[C@@H]1CCCN1C(=O)[C@H](CC(=O)O)NC(=O)[C@H](C)NC(=O)[C@H](CO)NC(=O)[C@@H](N)CO)C(=O)N[C@@H](CC(=O)O)C(=O)N[C@@H](CCC(=O)O)C(=O)O` (H-SSADPNSDWNAPAEEWGNWVDE-OH) was 62.4 nM.
`CC(C)[C@H](NC(=O)[C@H](Cc1c[nH]c2ccccc12)NC(=O)[C@H](CC(N)=O)NC(=O)CNC(=O)[C@H](Cc1c[nH]c2ccccc12)NC(=O)[C@@H]1CNC(=O)[C@@H](NC(=O)[C@H](C)NC(=O)[C@H](CC(N)=O)NC(=O)[C@H](Cc2c[nH]c3ccccc23)NC(=O)[C@@H](N)CC(=O)O)CC(=O)N[C@@H](C)C(=O)N[C@@H](CCC(=O)O)C(=O)N1)C(=O)N[C@@H](CC(=O)O)C(=O)N[C@@H](CCC(=O)O)C(N)=O` (I: AE[Dap]WGNWVDE-NH2 / II: H-DWNAD; amide I:3-II:C, I:N-II:5): the Kd amounted to 171 nM.
Regarding `CC(C)[C@H](NC(=O)[C@H](Cc1c[nH]c2ccccc12)NC(=O)[C@H](CC(N)=O)NC(=O)CNC(=O)[C@H](Cc1c[nH]c2ccccc12)NC(=O)[C@H](CCC(=O)O)NC(=O)[C@H](CCC(=O)O)NC(=O)[C@H](C)NC(=O)[C@@H]1CCCN1C(=O)[C@@H]1CNC(=O)[C@@H](NC(=O)[C@@H](N)CC(=O)O)CC(=O)N[C@@H](Cc2c[nH]c3ccccc23)C(=O)N[C@@H](CC(N)=O)C(=O)N1)C(=O)N[C@@H](CC(=O)O)C(=O)N[C@@H](CCC(=O)O)C(N)=O`, the Kd turned out to be 121 nM.
The same measure, in the same setting: as for `CC[C@H](C)[C@H](NC(=O)[C@H](CC(N)=O)NC(=O)[C@H](Cc1c[nH]c2ccccc12)NC(=O)[C@H](CC(=O)O)NC(=O)[C@@H]1CNC(=O)[C@@H](N)CC(=O)N[C@@H](C)C(=O)N[C@@H](C)C(=O)N1)C(=O)N[C@@H](Cc1ccc(O)cc1)C(=O)N[C@@H](C)C(=O)N[C@@H](Cc1ccc(O)cc1)C(=O)N[C@@H](CCC(=O)O)C(=O)N[C@@H](Cc1c[nH]c2ccccc12)C(=O)NCC(=O)N[C@@H](CC(N)=O)C(=O)N[C@@H](CCC(=O)O)C(N)=O` (AA[Dap]DWNIYAYEWGNE-NH2; linker N-3 via X1), the figure is 451 nM; as for `CC(C)[C@H](NC(=O)[C@H](Cc1c[nH]c2ccccc12)NC(=O)[C@H](CC(N)=O)NC(=O)CNC(=O)[C@H](Cc1c[nH]c2ccccc12)NC(=O)[C@H](CCC(=O)O)NC(=O)[C@H](CCC(=O)O)NC(=O)[C@H](C)NC(=O)[C@@H]1CCCN1C(=O)[C@H](C)NC(=O)[C@H](CC(N)=O)NC(=O)[C@H](Cc1c[nH]c2ccccc12)NC(=O)[C@H](CC(=O)O)NC(=O)[C@H](CO)NC(=O)[C@@H](N)CC(N)=O)C(=O)O` (H-NSDWNAPAEEWGNWV-OH), 152 nM.
Consider `C[C@H](NC(=O)[C@@H]1CCCN1C(=O)[C@@H]1CNC(=O)[C@@H](N)CC(=O)N[C@@H](Cc2c[nH]c3ccccc23)C(=O)N[C@@H](CC(N)=O)C(=O)N1)C(=O)N[C@@H](Cc1ccccc1)C(=O)N[C@@H](CCC(=O)O)C(=O)N[C@@H](Cc1c[nH]c2ccccc12)C(=O)NCC(=O)N[C@@H](CC(N)=O)C(N)=O` (WN[Dap]PAFEWGN-NH2; linker N-3 via X1), for which the Kd worked out at 992 nM.
Same read-out and setting: the value for `C[C@@H]1NC(=O)C[C@H](N)C(=O)NC[C@@H](C(=O)N[C@@H](CC(=O)O)C(=O)N[C@@H](Cc2c[nH]c3ccccc23)C(=O)N[C@@H](CC(N)=O)C(=O)N[C@@H](C)C(=O)N2CCC[C@H]2C(=O)N[C@@H](C)C(=O)N[C@@H](CCC(=O)O)C(=O)N[C@@H](CCC(=O)O)C(=O)N[C@@H](Cc2c[nH]c3ccccc23)C(=O)NCC(=O)N[C@@H](CC(N)=O)C(N)=O)NC(=O)[C@H](C)NC1=O` (AA[Dap]DWNAPAEEWGN-NH2; linker N-3 via X1) was 231 nM; that for `C[C@H](NC(=O)[C@H](CC(N)=O)NC(=O)[C@@H]1CNC(=O)[C@@H](N)CC(=O)N[C@@H](Cc2c[nH]c3ccccc23)C(=O)N[C@@H](CC(N)=O)C(=O)N1)C(=O)N[C@@H](CCC(=O)O)C(=O)N[C@@H](CCC(=O)O)C(=O)N[C@@H](Cc1c[nH]c2ccccc12)C(=O)NCC(=O)N[C@@H](CC(N)=O)C(N)=O` (WN[Dap]NAEEWGN-NH2; linker N-3 via X1) was 697 nM.
On the same count and under the same terms, the value for `CC[C@H](C)[C@H](NC(=O)[C@H](CC(N)=O)NC(=O)[C@H](Cc1c[nH]c2ccccc12)NC(=O)[C@H](CC(=O)O)NC(=O)[C@@H]1CNC(=O)[C@@H](N)CC(=O)N[C@@H](C)C(=O)N[C@@H](C)C(=O)N1)C(=O)N[C@@H](Cc1ccc(O)cc1)C(=O)N[C@@H](C)C(=O)N[C@@H](Cc1ccc(O)cc1)C(=O)N[C@@H](CCC(=O)O)C(=O)N[C@@H](Cc1c[nH]c2ccccc12)C(=O)NCC(=O)N[C@@H](CC(N)=O)C(=O)N[C@@H](CC(=O)O)C(N)=O` (AA[Dap]DWNIYAYEWGND-NH2; linker N-3 via X1) was 443 nM; that for `C[C@H](NC(=O)[C@@H]1CCCN1C(=O)[C@@H]1CNC(=O)[C@@H](N)CC(=O)N[C@@H](Cc2c[nH]c3ccccc23)C(=O)N[C@@H](CC(N)=O)C(=O)N1)C(=O)N[C@@H](CCC(=O)O)C(=O)N[C@@H](CCC(=O)O)C(=O)N[C@@H](Cc1c[nH]c2ccccc12)C(=O)NCC(=O)N[C@@H](CC(N)=O)C(N)=O` (WN[Dap]PAEEWGN-NH2; linker N-3 via X1) was 584 nM; that for `C[C@H](NC(=O)[C@H](Cc1ccc(O)cc1)NC(=O)[C@@H]1CNC(=O)[C@@H](N)CC(=O)N[C@@H](Cc2c[nH]c3ccccc23)C(=O)N[C@@H](CC(N)=O)C(=O)N1)C(=O)N[C@@H](Cc1ccc(O)cc1)C(=O)N[C@@H](CCC(=O)O)C(=O)N[C@@H](Cc1c[nH]c2ccccc12)C(=O)NCC(=O)N[C@@H](CC(N)=O)C(N)=O` (WN[Dap]YAYEWGN-NH2; linker N-3 via X1) was 943 nM.
On the same count and under the same terms, the value for `CC(C)[C@H](NC(=O)[C@H](Cc1c[nH]c2ccccc12)NC(=O)[C@H](CC(N)=O)NC(=O)CNC(=O)[C@H](Cc1c[nH]c2ccccc12)NC(=O)[C@H](CCC(=O)O)NC(=O)[C@@H]1CNC(=O)CC(NC(=O)[C@H](CC(N)=O)NC(=O)[C@H](Cc2c[nH]c3ccccc23)NC(=O)[C@@H](N)CC(=O)O)C(=O)N2CCC[C@H]2C(=O)N[C@@H](C)C(=O)N1)C(=O)N[C@@H](CC(=O)O)C(=O)N[C@@H](CCC(=O)O)C(N)=O` (stereo partly specified) (H-DWN[ξD]PA[Dap]EWGNWVDE-NH2; lactam 4-7) was 171 nM; that for `C[C@H](NC(=O)[C@H](CC(N)=O)NC(=O)[C@@H]1CNC(=O)[C@@H](N)CC(=O)N[C@@H](Cc2c[nH]c3ccccc23)C(=O)N[C@@H](CC(N)=O)C(=O)N1)C(=O)N[C@@H](Cc1ccc(O)cc1)C(=O)N[C@@H](CCC(=O)O)C(=O)N[C@@H](Cc1c[nH]c2ccccc12)C(=O)NCC(=O)N[C@@H](CC(N)=O)C(N)=O` (WN[Dap]NAYEWGN-NH2; linker N-3 via X1) was 932 nM; that for `C[C@H](NC(=O)[C@@H]1CCCN1C(=O)[C@H](C)NC(=O)[C@H](CC(N)=O)NC(=O)[C@H](Cc1c[nH]c2ccccc12)NC(=O)[C@@H](N)CC(=O)O)C(=O)N[C@@H](CCC(=O)O)C(=O)N[C@@H](CCC(=O)O)C(=O)N[C@@H](Cc1c[nH]c2ccccc12)C(=O)NCC(=O)N[C@@H](CC(N)=O)C(=O)O` (H-DWNAPAEEWGN-OH) was 211 nM.
`C[C@H](NC(=O)[C@H](CO)NC(=O)[C@@H](N)CO)C(=O)N[C@@H](CC(=O)O)C(=O)N1CCC[C@H]1C(=O)N[C@@H](CC(N)=O)C(=O)N[C@@H](CO)C(=O)N[C@@H](CC(=O)O)C(=O)N[C@@H](Cc1c[nH]c2ccccc12)C(=O)N[C@@H](CC(N)=O)C(=O)N[C@@H](C)C(=O)N1CCC[C@H]1C(=O)N[C@@H](C)C(=O)N[C@@H](CCC(=O)O)C(=O)N[C@@H](CCC(=O)O)C(=O)N[C@@H](Cc1c[nH]c2ccccc12)C(=O)NCC(=O)N[C@@H](CC(N)=O)C(=O)O` (H-SSADPNSDWNAPAEEWGN-OH): the Kd worked out at 118 nM.
`C[C@H](NC(=O)[C@H](CC(N)=O)NC(=O)[C@@H]1CNC(=O)[C@@H](N)CC(=O)N[C@@H](Cc2c[nH]c3ccccc23)C(=O)N[C@@H](CC(N)=O)C(=O)N1)C(=O)N[C@@H](Cc1ccccc1)C(=O)N[C@@H](CCC(=O)O)C(=O)N[C@@H](Cc1c[nH]c2ccccc12)C(=O)NCC(=O)N[C@@H](CC(N)=O)C(N)=O` (WN[Dap]NAFEWGN-NH2; linker N-3 via X1): the Kd is 1720 nM.

The nature of another series: Drug uptake in human MDA-MB-231 cells assessed as increase in cell penetration at 10 uM incubated for 12 hrs by flow cytometry method. The series is classed as ADME, cell-based. To be noted: mda-mb-231, 12 h.
Turning to `CC(C)[C@H](NC(=O)[C@H](Cc1c[nH]c2ccccc12)NC(=O)[C@H](CC(N)=O)NC(=O)CNC(=O)[C@H](Cc1c[nH]c2ccccc12)NC(=O)[C@@H]1CNC(=O)[C@@H](NC(=O)[C@H](C)NC(=O)[C@H](CC(N)=O)NC(=O)[C@H](Cc2c[nH]c3ccccc23)NC(=O)[C@@H](N)CC(=O)O)CC(=O)N[C@@H](C)C(=O)N[C@@H](CCC(=O)O)C(=O)N1)C(=O)N[C@@H](CC(=O)O)C(=O)N[C@@H](CCC(=O)O)C(N)=O` (I: AE[Dap]WGNWVDE-NH2 / II: H-DWNAD; amide I:3-II:C, I:N-II:5), the Drug uptake result is “Active”.
The same measure, in the same setting: as for `CC(C)[C@H](NC(=O)[C@H](Cc1c[nH]c2ccccc12)NC(=O)[C@H](CC(N)=O)NC(=O)CNC(=O)[C@H](Cc1c[nH]c2ccccc12)NC(=O)[C@H](CCC(=O)O)NC(=O)[C@H](CCC(=O)O)NC(=O)[C@H](C)NC(=O)[C@@H]1CCCN1C(=O)[C@@H]1CNC(=O)[C@@H](NC(=O)[C@@H](N)CC(=O)O)CC(=O)N[C@@H](Cc2c[nH]c3ccccc23)C(=O)N[C@@H](CC(N)=O)C(=O)N1)C(=O)N[C@@H](CC(=O)O)C(=O)N[C@@H](CCC(=O)O)C(N)=O`, the entry is “Active”; as for `CC(C)[C@H](NC(=O)[C@H](Cc1c[nH]c2ccccc12)NC(=O)[C@H](CC(N)=O)NC(=O)CNC(=O)[C@H](Cc1c[nH]c2ccccc12)NC(=O)[C@H](CCC(=O)O)NC(=O)[C@@H]1CNC(=O)CC(NC(=O)[C@H](CC(N)=O)NC(=O)[C@H](Cc2c[nH]c3ccccc23)NC(=O)[C@@H](N)CC(=O)O)C(=O)N2CCC[C@H]2C(=O)N[C@@H](C)C(=O)N1)C(=O)N[C@@H](CC(=O)O)C(=O)N[C@@H](CCC(=O)O)C(N)=O` (stereo partly specified) (H-DWN[ξD]PA[Dap]EWGNWVDE-NH2; lactam 4-7), “Active”.
